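Interpolation was linear, between the two tested concentrations surrounding the appropriate level; five concentrations were tested over 48 hours in 96-well plates. Abbreviation: GI50, concentration required for 50% inhibition of growth. Definition used: TGI = concentration required for complete inhibition of growth.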 A value given as a limit tells only on which side of the number the result lay.

Common to all, as to assay: NCI tumour cell line growth inhibition, 48 h
The test system of test [1] is 786-0 renal.
Test [2] has as its system A498 renal.
Test [3] deals with HCC-2998 colon.
For test [4], the system named is IGROV1 ovarian.
In test [5] the test system is K-562 leukemia.
Test [6] has as its system LOX IMVI melanoma.
Test [7] deals with NCI-H460 lung.
For test [8], the system named is SK-MEL-5 melanoma.
The subject of test [9] is TK-10 renal.
For test [10], the system named is UACC-62 melanoma.

For `CCOc1cc(C(C)(C)C)ccc1C1=N[C@H](c2ccc(Cl)cc2)[C@H](c2ccc(Cl)cc2)N1C(=O)N1CCN(CC#Cc2cccc3c2CN([C@@H]2CCC(=O)NC2=O)C3=O)CC1`, the GI50 in test [1] was 1.32 µM; in test [2], 0.197 µM; in test [3], 0.905 µM; in test [4], 0.165 µM; in [5] it was 2.66 µM; in [6] it was 2.05 µM. The GI50 in test [7] was 2.38 µM; in test [8], 0.868 µM; in test [9], 2.41 µM; in [10], 0.673 µM. The TGI in [1] was 42.8 µM; in [2] it was 6.62 µM; in [3] it was over 100 µM; in test [4] it was over 33.5 µM; in test [5], over 100 µM; in test [6], 22.7 µM. Besides, the TGI worked out at 11.7 µM in [7], 2.2 µM in test [8], 44 µM in [9] and 14.7 µM in [10].
For `Oc1ccc2ccccc2c1N=Nc1cccc2ccccc12`, the TGI in test [1], in test [2], in test [3], in test [4], in [5] and in [6] was over 100 µM in each case. Further, the TGI in [7], in test [8], in test [9] and in test [10] was over 100 µM throughout.
Take `COC(=O)C(=O)CC(=O)CCn1[nH]c(=O)c(Cl)c(Cl)c1=O`: the TGI in test [1], in test [2], in [3], in test [4], in test [5] and in [6] was over 100 µM throughout. The TGI in test [7], in test [8], in test [9] and in test [10] was over 100 µM in each case.
With `COc1ccc2c(c1)C(=O)/C(=C/c1cccc(OCC(=O)c3ccccc3)c1)O2`, the GI50 in [1] is 4.59 µM; in test [2], 17.3 µM; in test [3], 1.74 µM; in [4], 3.66 µM; in test [5], 0.722 µM; in test [6], 2.83 µM. The GI50 is 14.4 µM in test [7], 14.3 µM in test [8], 2.45 µM in test [9] and 13.4 µM in test [10]. In addition, the TGI in [1] is 17.5 µM; in [2], 31 µM; in test [3] it was 3.16 µM; in test [4] it was 13.3 µM; in test [5], 2.13 µM; in test [6], 9.54 µM. Further, the TGI in [7] turned out to be 36 µM; in test [8], 28.1 µM; in test [9], 5.5 µM; in [10], 27 µM.
Consider `CCCOC(=O)N[C@H]1CCc2c(Cl)c(OC)c(OC)c(OC)c2-c2ccc(SC)c(=O)cc21`, for which the GI50 in test [1] was under 0.0174 µM; in test [2] it was under 0.01 µM; in test [3], under 0.0112 µM; in test [4] it was under 0.01 µM; in [5], under 0.01 µM; in test [6], under 0.01 µM. The GI50 in [7] is under 0.0112 µM; in test [8] it was under 0.01 µM; in test [9], 5.04 µM; in test [10], under 0.01 µM. The TGI was 21.5 µM in test [1]; under 0.01 µM in [2]; 0.7 µM in test [3]; over 65.6 µM in [4]; over 100 µM in test [5]; 13 µM in [6]. For the same compound, the TGI in [7] was 0.944 µM; in test [8], 0.0207 µM; in test [9], over 88.4 µM; in test [10], 13.8 µM.
Take `Cc1nnc(-c2ccc(C)c(-c3ccc(C(=O)Nc4cccc(C#N)c4)cc3)c2)o1`: the GI50 in test [1], in test [2], in test [3], in [4], in test [5] and in test [6] was over 25 µM in each case. The GI50 in [7] was over 25 µM; in test [8], over 16.2 µM; in test [9], over 25 µM; in test [10], over 25 µM. Besides, the TGI in test [1], in test [2], in test [3], in test [4], in test [5] and in test [6] was over 25 µM in each case. Also, the TGI in test [7], in [8], in test [9] and in test [10] was over 25 µM each time.
With `CCC[CH2][Sn]([CH2]CCC)([O]C(=O)CN)[O]C(=O)CN`, the GI50 in test [1] is 33 µM; in test [2], 44.8 µM; in test [3], 93.3 µM; in test [4], over 100 µM; in test [5], 18.7 µM; in test [6], 22.1 µM. In addition, the GI50 is over 100 µM in [7], 66.6 µM in test [8], 38.4 µM in [9] and 17.5 µM in [10]. For the same compound, the TGI is over 100 µM in test [1]; over 100 µM in test [2]; over 100 µM in [3]; over 100 µM in test [4]; over 100 µM in test [5]; 59.7 µM in test [6]. The TGI in test [7] was over 100 µM; in test [8], over 100 µM; in test [9], over 100 µM; in test [10] it was 60.5 µM.
`CCOc1cccc(/C=N/NC(=O)c2cccc(Nc3ccnc(C(F)(F)F)c3)c2)c1O`: the GI50 is 1.18 µM in test [1]; 15 µM in [2]; 1.45 µM in test [3]; 0.852 µM in [4]; 1.32 µM in [5]; 0.473 µM in [6]. Further, the GI50 is 1.17 µM in test [7], 0.676 µM in [8], 1.57 µM in test [9] and 0.551 µM in test [10]. Further, the TGI is over 20.7 µM in [1]; over 76.9 µM in test [2]; over 100 µM in [3]; over 52.6 µM in test [4]; 30.6 µM in [5]; over 26.6 µM in test [6]. For the same compound, the TGI was 9.53 µM in test [7], 7.84 µM in test [8], 83.1 µM in test [9] and 11.7 µM in test [10].

Values taken from PubChem BioAssay (NCI).
